Results as given in patent publication US5401512A, “Delayed release oral dosage forms for treatment of intestinal disorders” (priority 1991, dated 1995).

Assays:
[1] = cited from earlier work; for Absorption before reaching the colon: oral administration, sulphapyridine and 5-ASA without the azo-bond
[2] = Serum levels of 5-ASA and N-acetyl-5-ASA after single oral dose in seven healthy volunteers; format: in vivo, healthy volunteers (human); settings: 7 volunteers
Protocol: (§1) Each of the batches of coated granules were separately packed into size 00 hard gelatin capsules (LOK-CAP, Eli Lilly) in an amount of 400 mg granules per capsule. The capsules were then spray coated with […] per capsule of a coating solution of the following formula: […]
(§2) Seven healthy volunteers were then each given blind on three separate occasions a single dose consisting of (a) 8 tablets of enteric coated 500 mg sulphasalazine tablets, (b) 8 of the enteric coated capsules containing the 20% Eudragit coated 5-ASA granules, and (c) 8 of the enteric coated capsules containing the 25% Eudragit coated 5-ASA granules. The serum levels of 5-ASA and N-acetyl-5-ASA at various times following administration were measured together with the total urinary excretion of 5-ASA and N-acetyl-5-ASA. In each case the values are given to three significant figures with 0 representing less than 2 ng/ml. The following abbreviations are used:
Tmax =time for the maximum serum concentration in hours, median and interquartials ranges
Cmax =maximum serum concentration attained in ng/ml
Thalf =estimated biological half life of elimination
KE=estimated first order in elimination rate constant

[3] = Total urinary excretion of 5-ASA and N-acetyl-5-ASA after single oral dose in seven healthy volunteers; format: in vivo, healthy volunteers (human); settings: 7 volunteers
Protocol: as §1
as §2, with “ng/ml.” for “ng/ml. The following abbreviations are used:”

| Compound | Pharmacologically active agent in treatment of colonic disease with SASP ([1]; Khan et al, The Lancet 1977) | Absorption before reaching the colon [1] | Thalf (estimated biological half life of elimination) of 5-ASA ([2]; 5-ASA) | Thalf (estimated biological half life of elimination) of N-Ac-5-ASA ([2]; N-Ac-5-ASA) | Mean urinary excretion of 5-ASA ([3]; 5-ASA) | Mean urinary excretion of N-Ac-5-ASA ([3]; N-Ac-5-ASA) |
| --- | --- | --- | --- | --- | --- | --- |
| Nc1ccc(O)c(C(=O)O)c1 [5-ASA, 5-amino-salicylic acid] | pharmacologically active agent | almost entirely absorbed from the small intestine before reaching the colon | – | – | – | – |
| Nc1ccc(S(=O)(=O)Nc2ccccn2)cc1 [sulphapyridine] | – | almost entirely absorbed from the small intestine before reaching the colon | – | – | – | – |
| O=C(O)c1cc(/N=N/c2ccc(S(=O)(=O)Nc3ccccn3)cc2)ccc1O [Sulphasalazine, Salicylazosulphapyridine] | – | only absorbed to a limited extent before reaching the colon | 19.4 ± 12.9 | 60.1 ± 50.1 | 0 ± 0 ng/mL | 170 ± 35 ng/mL |
